In PMC9696794, “Synthesis and Antimicrobial Activity of Short Analogues of the Marine Antimicrobial Peptide Turgencin A: Effects of SAR Optimizations, Cys-Cys Cyclization and Lipopeptide Modifications” (International Journal of Molecular Sciences, 2022):
Converted amounts (≈) assume the structure as drawn. Where a SMILES comes first, the peptide text is derived from it. Bridges are numbered along the chain shown (N, C = ends). The star is where a group is joined. Decanoyl = CCCCCCCCCC(=O)*; Octanoyl = CCCCCCCC(=O)*

Legend:
[1] = system: C. glutamicum (Cg, ATCC 13032); test: microbe, parasite or virus in culture; assay type: cell-based, Corynebacterium glutamicum
Outline: (§1)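 Cultures grown in Mueller–Hinton broth were adjusted by OD600 to 2.5–3 × 10^4 CFU/mL and mixed with two-fold peptide dilutions from 256 to 1 µg/mL. Plates were incubated at 35 °C with OD595 monitored every hour for 24 h.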

[2] = system: C. albicans (Ca, ATCC 10231); test: microbe, parasite or virus in culture; assay type: cell-based, Candida albicans
Outline: (§2)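 Overnight cultures in potato dextrose broth with 2% glucose at 25–30 °C were diluted to approx. 4 × 10^5 spores/mL and mixed 1:1 with two-fold peptide dilutions plated at 256 to 1 µg/mL. After 48 h at room temperature, OD600 was read. MIC was the lowest concentration giving OD below 10% of the growth control, in triplicate.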

E. coli (Ec, ATCC 25922) = test: microbe, parasite or virus in culture; assay type: cell-based, Escherichia coli
Outline: as §1

[3] = system: S. aureus (Sa, ATCC 9144); test: microbe, parasite or virus in culture; assay type: cell-based, Staphylococcus aureus
Outline: as §1

[4] = system: human red blood cells (RBC); test: Haemolytic activity assay; assay type: cell-based; details: for Selectivity index (SI) G- / Selectivity index (SI) G+ / Selectivity index (SI) Fungi: Table S3, highest tested concentration used where EC50 above it; for Selectivity index (SI) G-: EC50/GM of Gram-negative strains; for Selectivity index (SI) G+: EC50/GM of Gram-positive strains; for Selectivity index (SI) Fungi: EC50/GM of fungi; for SI (selectivity index = EC50/GM): haemolytic EC50 over GM of MIC against all bacterial strains, Table 1; for RBC Tox. (EC50), haemolytic activity: human RBC, 1 h, 37 °C, concentration giving 50% haemolysis
Outline: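 Washed human erythrocytes (1% hematocrit final) incubated 1 h at 37 °C with agitation with lipopeptides at 500–3.9 μM in PBS (≤1% DMSO), duplicates. Haemoglobin release read at 545 nm relative to 0.1% Triton X-100; EC50 is 50% haemolysis, averaged from three experiments.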

A. pullulans (Ap) = test: microbe, parasite or virus in culture; assay type: cell-based, Aurobasidium pollulans; details: 48 h
Outline: as §2

[5] = system: E. coli NR698 (outer membrane permeable mutant, imp4213); test: microbe, parasite or virus in culture; details: MC4100 NR698 imp4213, deficient outer membrane
Experimental: (§3) All cyclic and linear peptides were screened for antibacterial activity against four Gram-positive strains: B. subtilis (Bs, ATCC 23857), C. glutamicum (Cg, ATCC 13032), S. aureus (Sa, ATCC 9144) and S. epidermidis RP62A (Se, ATCC 35984), and two Gram-negative strains: E. coli (Ec, ATCC 25922) and P. aeruginosa (Pa, ATCC 27853). The activity was assessed using a broth microdilution assay according to a modified CLSI-based method. Briefly, overnight bacterial cultures were grown in Mueller–Hinton (MH) broth medium (Difco Laboratories, Detroit, MI, USA) for 2 h at room temperature. The optical density (OD600) was measured, and the bacterial suspensions were adjusted to 2.5–3 × 10^4 CFU/mL in MH medium. The bacterial suspension (50 µL) was distributed in 96-well plates (Nunc, Roskilde, Denmark) preloaded with two-fold dilution series (256 to 1 µg/mL) of peptide solutions (50 µL), giving a final well volume of 100 µL. The microplates were incubated in an EnVision 2103 microplate reader (PerkinElmer, Llantrisant, UK) at 35 °C, with OD595 recorded every hour for 24 h. MIC was defined as the lowest concentration of peptides showing an optical density less than 10% of the negative (growth) control, consisting of bacterial suspension and water. Polymyxin B sulfate (Sigma-Aldrich, St. Louis, MO, USA) and chlorhexidine acetate (CHX, Fresenius Kabi, Halden, Norway), both with concentrations ranging from 12.5 to 0.09 μg/mL, served as positive (growth inhibition) controls. All peptides were tested in triplicate.
(§4) MIC values were determined for all cyclic peptides against two E. coli strains: wild type (WT) MC4100 and the hyperpermeable variant NR698, having a deficient outer membrane. The NR698 strain, containing lptD4213/imp4213 mutation, was kindly provided by M. Grabowicz (Emory University School of Medicine, Rollins Research Center, Atlanta, GA, USA). The assay was performed in the same way as previously described for the antibacterial MIC assay.

[6] = system: E. coli MC4100 (wild type, WT); test: microbe, parasite or virus in culture; details: wild type
Experimental: as §3, §4

[7] = system: P. aeruginosa (Pa, ATCC 27853); test: microbe, parasite or virus in culture; assay type: cell-based, Pseudomonas aeruginosa
Outline: as §1

Rhodotorula sp. (Rh) = test: microbe, parasite or virus in culture; assay type: cell-based; details: 48 h
Outline: as §2

[8] = system: Gram-negative bacterial strains (E. coli and P. aeruginosa); test: Antibacterial MIC assay, Gram-negative strains together (range or geometric mean); assay type: cell-based; details: Table S3; MIC >256 set to 256
Outline: as §1

all bacterial strains = test: Antibacterial MIC assay, all bacterial strains together (range or geometric mean); assay type: cell-based; details: for GM (geometric mean of the MIC values against all bacterial strains): Table 1, six bacterial strains; for GM of MIC Tot. bact.: Table S3, all bacterial test strains, MIC >256 set to 256
Outline: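 Broth microdilution in Mueller–Hinton broth against B. subtilis, C. glutamicum, S. aureus, S. epidermidis RP62A, E. coli and P. aeruginosa; inoculum 2.5–3 × 10^4 CFU/mL, 35 °C, OD595 read hourly for 24 h. MIC: lowest peptide concentration giving OD below 10% of growth control; geometric mean across strains, triplicate.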

[9] = system: S. epidermidis RP62A (Se, ATCC 35984); test: microbe, parasite or virus in culture; assay type: cell-based, Staphylococcus epidermidis
Outline: as §1

[10] = system: fungi (A. pullulans, C. albicans, Rhodotorula sp.); test: Antifungal MIC assay, all fungi together (range or geometric mean); assay type: cell-based; details: Table S3; MIC >128 set to 128
Outline: as §2

[11] = system: B. subtilis (Bs, ATCC 23857); test: microbe, parasite or virus in culture; assay type: cell-based, Bacillus subtilis
Outline: as §1

[12] = system: Gram-positive bacterial strains; details: Table S3; MIC >256 set to 256
Outline: as §1

| Molecule | Antimicrobial Activity (MIC) Gram + Cg ([1]; ATCC 13032, 24 h) [µg/mL] | Antimicrobial Activity (MIC) Fungi Ca ([2]; ATCC 10231, 48 h) [µg/mL] | Antimicrobial Activity (MIC) Gram − Ec (E. coli (Ec, ATCC 25922); ATCC 25922, 24 h) [µg/mL] | Antimicrobial Activity (MIC) Gram + Sa ([3]; ATCC 9144, 24 h) [µg/mL] | Selectivity index (SI) G- [4] | Selectivity index (SI) G+ [4] | Selectivity index (SI) Fungi [4] | SI (selectivity index = EC50/GM) [4] | Antimicrobial Activity (MIC) Fungi Ap (A. pullulans (Ap)) [µg/mL] | MIC E. coli NR698 (mutant) [5] [µg/mL] | MIC E. coli MC4100 (WT) [6] [µg/mL] | Antimicrobial Activity (MIC) Gram − Pa ([7]; ATCC 27853, 24 h) [µg/mL] | Antimicrobial Activity (MIC) Fungi Rh (Rhodotorula sp. (Rh)) [µg/mL] | GM of MIC G- [8] [µg/mL] | GM (geometric mean of the MIC values against all bacterial strains) (all bacterial strains) [µg/mL] | GM of MIC Tot. bact. (all bacterial strains) [µg/mL] | Antimicrobial Activity (MIC) Gram + Se ([9]; ATCC 35984, 24 h) [µg/mL] | GM of MIC Fungi [10] [µg/mL] | Antimicrobial Activity (MIC) Gram + Bs ([11]; ATCC 23857, 24 h) [µg/mL] | GM of MIC G+ [12] [µg/mL] | further results |
| --- | --- | --- | --- | --- | --- | --- | --- | --- | --- | --- | --- | --- | --- | --- | --- | --- | --- | --- | --- | --- | --- |
| CCCCCCCC(=O)N[C@H]1CSSC[C@@H](C(=O)N[C@@H](CCCNC(=N)N)C(=O)N[C@@H](CC(C)C)C(N)=O)NC(=O)[C@H](CCCNC(=N)N)NC(=O)[C@H](Cc2c[nH]c3ccccc23)NC(=O)[C@H](Cc2c[nH]c3ccccc23)NC(=O)CNC(=O)[C@H](Cc2c[nH]c3ccccc23)NC(=O)[C@H](CCCNC(=N)N)NC(=O)[C@H](CCCNC(=N)N)NC(=O)CNC1=O [Peptide C8-cTurg-6, C8- (CGRRWGWWRC)RL-NH2] (Octanoyl-CGRRWGWWRCRL-NH2; disulfide 1-10) | 4 | 64 | 8 | 8 | 3 | 6 | 1 | 5 | 64 | 8 (≈ 4.55 µM) | 8 (≈ 4.55 µM) | 16 | 32 | 11 | 6 | 6 | 4 | 51 | 4 | 5 | RBC Tox. (EC50), haemolytic activity [4]: 30 µg/mL |
| CCCCCCCCCC(=O)N[C@H]1CSSC[C@@H](C(=O)N[C@@H](CCCCN)C(=O)N[C@@H](CC(C)C)C(N)=O)NC(=O)[C@H](CCCCN)NC(=O)[C@H](Cc2c[nH]c3ccccc23)NC(=O)CNC(=O)[C@H](Cc2c[nH]c3ccccc23)NC(=O)[C@H](Cc2c[nH]c3ccccc23)NC(=O)[C@H](CCCCN)NC(=O)[C@H](CCCCN)NC(=O)CNC1=O [Peptide C10-cTurg-2, C10- (CGKKWWGWKC)KL-NH2] (Decanoyl-CGKKWWGWKCKL-NH2; disulfide 1-10) | 4 | 64 | 8 | 4 | 13 | 32 | 3 | 24 | 32 | 4 (≈ 2.39 µM) | 8 (≈ 4.78 µM) | 8 | 16 | 8 | 5 | 5 | 4 | 32 | 2 | 3 | RBC Tox. (EC50), haemolytic activity [4]: 106 µg/mL |
| CC(C)C[C@H](NC(=O)[C@H](CCCNC(=N)N)NC(=O)[C@@H]1CSSC[C@H](N)C(=O)NCC(=O)N[C@@H](CCCNC(=N)N)C(=O)N[C@@H](CCCNC(=N)N)C(=O)N[C@@H](Cc2c[nH]c3ccccc23)C(=O)N[C@@H](Cc2c[nH]c3ccccc23)C(=O)NCC(=O)N[C@@H](Cc2c[nH]c3ccccc23)C(=O)N[C@@H](CCCNC(=N)N)C(=O)N1)C(N)=O [cTurg-5] (H-CGRRWWGWRCRL-NH2; disulfide 1-10; N-terminus assumed) | 4 | 32 | 8 | 16 | > 97 | > 138 | > 34 | >123 | 32 | 8 (≈ 4.9 µM) | 8 (≈ 4.9 µM) | 16 | 32 | 11 | 9 | 9 | 8 | 32 | 8 | 8 | RBC Tox. (EC50), haemolytic activity [4]: >1101 µg/mL |
| CC(C)C[C@H](NC(=O)[C@H](CCCCN)NC(=O)[C@@H]1CSSC[C@H](N)C(=O)NCC(=O)N[C@@H](CCCCN)C(=O)N[C@@H](CCCCN)C(=O)N2CCC[C@H]2C(=O)N[C@@H](Cc2c[nH]c3ccccc23)C(=O)N[C@@H](Cc2c[nH]c3ccccc23)C(=O)N[C@@H](Cc2c[nH]c3ccccc23)C(=O)N[C@@H](CCCCN)C(=O)N1)C(N)=O [cTurg-4] (H-CGKKPWWWKCKL-NH2; disulfide 1-10; N-terminus assumed) | 4 | 64 | 64 | 64 | > 8 | > 67 | > 26 | >33 | 32 | 8 (≈ 5.13 µM) | 16 (≈ 10.3 µM) | 256 | 32 | 128 | 32 | 32 | 32 | 40 | 8 | 16 | – |
| Polymyxin B [reference compound] | – | – | – | – | – | – | – | – | – | 0.2 | 0.8 | – | – | – | – | – | – | – | – | – | Antimicrobial Activity (MIC) Gram + Cg ([1]; C. glutamicum ATCC 13032, 24 h): 3.1 µg/mL; Antimicrobial Activity (MIC) Fungi Ca ([2]; C. albicans ATCC 10231, 48 h): 12.5 µg/mL; Antimicrobial Activity (MIC) Gram − Ec (E. coli (Ec, ATCC 25922); E. coli ATCC 25922, 24 h): 3.1 µg/mL; MIC E. coli ATCC 25922 (from Table 1) (E. coli (Ec, ATCC 25922); Table 2, laboratory strain): 3.1 µg/mL; Antimicrobial Activity (MIC) Gram + Sa ([3]; S. aureus ATCC 9144, 24 h): 12.5 µg/mL; Antimicrobial Activity (MIC) Fungi Ap (A. pullulans (Ap); A. pullulans): 3.1 µg/mL; Antimicrobial Activity (MIC) Gram − Pa ([7]; P. aeruginosa ATCC 27853, 24 h): 3.1 µg/mL; Antimicrobial Activity (MIC) Fungi Rh (Rhodotorula sp. (Rh); Rhodotorula sp.): 3.1 µg/mL; Antimicrobial Activity (MIC) Gram + Se ([9]; S. epidermidis RP62A ATCC 35984, 24 h): 6.3 µg/mL; Antimicrobial Activity (MIC) Gram + Bs ([11]; B. subtilis ATCC 23857, 24 h): 3.1 µg/mL |
